Measurements as given in patent publication US6210964A, “Avian extracellular calcium-sensing receptor” (The Brigham and Women's Hospital, Inc., priority 1998, dated 2001).

What was measured:
human CaR [1] = molecular target: T1, human CaR (Homo sapiens, UniProt P41180); experiment: Cytosolic calcium (Cai) response of HEK 293 cells stably transfected with the human CaR; type: cell-based; set-up: expressed in transfected cells; host or cells: HEK 293; conditions: for effect on the EC50 of activation by Cao compared with 40 mM NaCl: addition of 40 mM salt
T1 sequence (P41180 20-1078): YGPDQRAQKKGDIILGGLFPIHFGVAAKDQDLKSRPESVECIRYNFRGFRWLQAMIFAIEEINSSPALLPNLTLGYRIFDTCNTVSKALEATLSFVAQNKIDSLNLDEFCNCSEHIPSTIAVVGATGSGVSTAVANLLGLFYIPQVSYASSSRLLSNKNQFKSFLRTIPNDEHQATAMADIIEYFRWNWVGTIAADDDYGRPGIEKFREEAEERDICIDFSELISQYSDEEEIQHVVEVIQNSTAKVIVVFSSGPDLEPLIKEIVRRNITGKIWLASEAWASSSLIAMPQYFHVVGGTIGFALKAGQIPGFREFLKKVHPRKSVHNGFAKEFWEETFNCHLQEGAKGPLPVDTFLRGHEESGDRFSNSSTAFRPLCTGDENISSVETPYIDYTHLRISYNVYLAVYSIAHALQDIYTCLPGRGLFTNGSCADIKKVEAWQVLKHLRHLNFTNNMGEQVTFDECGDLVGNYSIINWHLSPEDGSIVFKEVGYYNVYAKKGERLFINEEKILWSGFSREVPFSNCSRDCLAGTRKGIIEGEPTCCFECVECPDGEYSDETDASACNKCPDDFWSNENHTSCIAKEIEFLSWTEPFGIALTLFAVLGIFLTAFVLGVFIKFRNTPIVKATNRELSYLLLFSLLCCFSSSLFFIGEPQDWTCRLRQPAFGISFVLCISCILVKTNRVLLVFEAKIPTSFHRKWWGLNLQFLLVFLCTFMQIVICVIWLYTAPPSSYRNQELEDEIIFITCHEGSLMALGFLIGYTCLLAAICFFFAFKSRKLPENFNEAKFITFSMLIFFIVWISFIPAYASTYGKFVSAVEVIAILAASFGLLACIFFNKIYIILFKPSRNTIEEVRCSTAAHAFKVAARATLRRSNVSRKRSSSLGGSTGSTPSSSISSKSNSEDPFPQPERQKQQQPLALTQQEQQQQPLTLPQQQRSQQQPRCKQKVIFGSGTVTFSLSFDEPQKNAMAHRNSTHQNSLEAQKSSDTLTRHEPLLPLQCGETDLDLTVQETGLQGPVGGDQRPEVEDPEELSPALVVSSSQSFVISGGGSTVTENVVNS
Experimental: Measurement of Cai using cell population system: Coverslips with near-confluent HEK cells were loaded with fura-2/AM and placed diagonally into thermostated cuvettes equipped with a magnetic stirrer. The bath solution was stirred at 37° C., and CaR agonists were added to the desired final concentration. Excitation monochrometers was centered at 340 nm and 380 nm with emission light collected at 90° using a long-pass emission filter. The 340/380 excitation ratio of emitted light was used to calculate Cai. Both in vivo and in vitro calibrations were used to estimate Cai.

chicken CaR = molecular target: T2, chicken CaR (Gallus gallus, UniProt A0A8V0ZLX2); experiment: Expression of chicken CaR in Xenopus laevis oocytes, agonist-dependent inward Cl- currents; type: cell-based
T2 construct: ORF 3177 nt, nt 87-3263), T7 cRNA injected into Xenopus laevis oocytes
T2 sequence (A0A8V0ZLX2 20-1059): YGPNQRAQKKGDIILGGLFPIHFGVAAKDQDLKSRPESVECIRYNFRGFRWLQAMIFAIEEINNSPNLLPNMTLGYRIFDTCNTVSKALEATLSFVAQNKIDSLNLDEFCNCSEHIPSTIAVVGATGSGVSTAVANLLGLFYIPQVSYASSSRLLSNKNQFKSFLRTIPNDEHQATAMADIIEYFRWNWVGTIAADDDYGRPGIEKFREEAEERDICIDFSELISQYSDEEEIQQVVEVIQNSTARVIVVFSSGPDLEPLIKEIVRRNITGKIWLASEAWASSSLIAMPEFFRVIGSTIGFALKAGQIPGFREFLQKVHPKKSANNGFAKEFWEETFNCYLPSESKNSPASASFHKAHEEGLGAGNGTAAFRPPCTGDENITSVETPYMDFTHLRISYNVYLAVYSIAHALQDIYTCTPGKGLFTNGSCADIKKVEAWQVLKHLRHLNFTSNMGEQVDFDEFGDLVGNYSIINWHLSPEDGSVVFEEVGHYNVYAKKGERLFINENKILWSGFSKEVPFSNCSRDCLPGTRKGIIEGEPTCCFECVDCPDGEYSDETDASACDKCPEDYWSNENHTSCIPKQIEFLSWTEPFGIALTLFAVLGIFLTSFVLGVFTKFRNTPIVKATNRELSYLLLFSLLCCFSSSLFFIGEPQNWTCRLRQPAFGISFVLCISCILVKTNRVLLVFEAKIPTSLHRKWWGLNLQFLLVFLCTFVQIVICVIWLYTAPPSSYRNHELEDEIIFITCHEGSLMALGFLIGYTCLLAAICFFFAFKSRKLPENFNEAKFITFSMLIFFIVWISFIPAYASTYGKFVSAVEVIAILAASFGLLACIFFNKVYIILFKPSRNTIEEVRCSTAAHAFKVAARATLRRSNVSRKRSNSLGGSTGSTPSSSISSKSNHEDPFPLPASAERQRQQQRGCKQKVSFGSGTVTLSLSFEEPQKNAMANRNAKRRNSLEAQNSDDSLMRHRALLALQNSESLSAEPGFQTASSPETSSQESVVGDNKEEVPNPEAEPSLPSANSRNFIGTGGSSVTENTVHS
Source text: Expression of the chicken CaR in Xenopus laevis oocytes. The assay is based on injection of synthetic RNA (cRNA) for the chicken CaR into Xenopus oocytes and measurement of agonist-dependent inward currents due to CaR-mediated stimulation of Ca^2+ -activated Cl^- channels (Brown, et al., Nature 366: 575-580 (1993)). In preparing, handling and injecting the oocytes, the techniques of Hediger et al. were followed (Proc. Nat'l Acad. Sci. USA 84:2634-2637 (1987)). cRNA was transcribed from the C1D one as previously described (Brown et al. Nature 336:575-580 (1993)). In vitro transcription of cRNA was done with T7 RNA polymerase in the presence of a cap analog (m^7 -GpppG, Pharmacia Biotech, Upsala, Sweden). Defolliculated oocytes were injected with 50 nl of a 0.25 μg/μl aqueous solution of CaR cRNA or with the same volume of H2 O as a negative control. The injected oocytes were then incubated in ND96 "standard" solution containing 92 mM Na, 5 mM K, 0.5 mM CaCl2 0.5 mM MgCl and 5 mM Hepes, pH 7.5, for 3-4 days before electrophysiological study. Cl^- currents were elicited by treatment of the oocytes with increasing concentrations of Ca^2+0, Mg^2+0 or Gd^3+0 and were measured using two electrode voltage clamp at a holding potential of […], as described in detail previously (Brown et al. Nature 336:575-580 (1993); Riccardi, et al. Proc. Nat'l Acad. Sci. USA 92:131-135 (1995)).

human CaR [2] = molecular target: T1, human CaR; conditions: addition of NaCl
Experimental: Measurement of ^3 H-inositol phosphates: Cells transfected with DNA encoding human CaR were labeled with [^3 H]inositol (10 uCi/10^6 cells) overnight in medium 199 (with 10 ul/ml penicillin-streptomycin, 10 mM Hepes, pH 7.5, and 15% bovine serum), washed with solution (10 mM LiCl, 0.5 mM MgSO4, 0.5 mM CaCl2, and 2 mg/ml BSA in Eagle's MEM with Earle's salts), and then incubated with polyvalent cations for 30 minutes. Reactions were terminated with a final concentration of 10% TCA. After sedimentation of precipitated debris and removal of TCA by ether extraction, inositol phosphates in the aqueous phase were separated on Dowex anion exchange columns. The radioactive inositol monophosphate (InsP), bisphosphate (InsP2), trisphosphate (InsP3) and tetraphosphate (InsP4) were eluted stepwise with 0.2 M, 0.4 M, 0.8 M and 1.2 M formate containing 0.1 M formic acid, respectively, and quantitated using a liquid scintillation counter.

[3] = oocytes injected with chicken CaR cRNA, Cl- currents

[Ca+2] [Ca^2+o]
threshold for cell activation (human CaR [1]; no alteration in NaCl): about 1.5 mM
EC50 (human CaR [1]; no alteration in NaCl, read-out: EC50 for activation of the CaR): ~3.5 mM
shift in the EC50 per 10 mM change in ionic strength (human CaR [1]; per 10 mM change in ionic strength): approximately 0.2 mM
effective concentration range (chicken CaR; [3]): millimolar range

[Gd+3] [Gd^3+o]
magnitude of inward current responses relative to Ca2+-evoked responses (chicken CaR; FIG. 5): almost an order of magnitude greater
half-maximal activation (chicken CaR; [3]): micromolar range

[Mg+2] [Mg^2+o]
effective concentration range (chicken CaR; [3]): millimolar range

[Cl-].[Na+] [NaCl, sodium chloride]
effect on Cai response to 2.5 mM Cao (human CaR [1]; NaCl elevated by 20 to 60 mM): attenuated
effect on threshold and EC50 of Cao activation (human CaR [1]; addition of NaCl in 20 mM increments): shift to the right
effect on Ca0-stimulated inositol phosphate accumulation (human CaR [2]): attenuated

C[N+](C)(C)CCO.[Cl-] [choline chloride]
effect on the EC50 of activation by Cao compared with 40 mM NaCl (human CaR [1]): same effect

[Cl-].[K+] [potassium chloride]
effect on the EC50 of activation by Cao compared with 40 mM NaCl (human CaR [1]): same effect
